Test results reported in patent US20040191115A1 (priority 2003, published 2004).
Values joined by “and” are separate entries in the source; they are usually repeats but may differ in a detail not shown here. Equal entries are not always repeated. Where two headings read alike, the source gives them in different places.

Assays:
[1] = test system: bacillus atrophaeus spores; conditions: normal machine operation, cartons running
Experimental: (§1) Studies were conducted to determine the microbial eradication on mandrels 34 that were subjected to vaporized sterilant introduced at the heaters 40. […] The efficacy of the mandrel sterilization was studied for both the mandrel caps 35 and the mandrel side tubes 37 (see FIG. 3).
(§2) Each of the studies was further carried out using a testing media of bacillus atrophaeus spores for inoculating the mandrels. The mandrels were inoculated by spraying, using an aerating spray bottle having a solution with a concentration of about 7 log bacillus spores. The mandrels were then allowed to air dry. Controls were swabbed using cotton swabs to assure that the mandrels were properly inoculated. Following the machine operating period of the test, the mandrels were swabbed and the bacillus spores transferred to an agar media for incubation of the spores (at 32° C. for 48 hours) and subsequent recovery.

[2] = test system: bacillus atrophaeus spores; conditions: 3.12 percent H2O2, no machine operation, without cartons; for average count of colony forming units for the time period / log of average count for the time period: mean of samples
Experimental: as §1, §2
In this part of the analysis, the form, fill and seal machine was operated without cartons and without indexing (rotation) of the mandrels.

[3] = 16.76 percent H2O2, time 10 min
[4] = 16.76 percent H2O2, time 15 min
[5] = 16.76 percent H2O2, time 20 min
[6] = 16.76 percent H2O2, time 30 min

## OO [hydrogen peroxide]
[1]; 3.12 percent H2O2, time 0 min
  Microbial Load (CFU/mandrel): 848000 CFU/mandrel
  Microbial Reduction (Log/mandrel): 0.00 Log/mandrel
[1]; 3.12 percent H2O2, time 10 min
  Microbial Load (CFU/mandrel): 187000 CFU/mandrel
  Microbial Reduction (Log/mandrel): 0.66 Log/mandrel
[1]; 3.12 percent H2O2, time 20 min
  Microbial Load (CFU/mandrel): 33400 CFU/mandrel
  Microbial Reduction (Log/mandrel): 1.40 Log/mandrel
[1]; 3.12 percent H2O2, time 30 min
  Microbial Load (CFU/mandrel): 14100 CFU/mandrel
  Microbial Reduction (Log/mandrel): 1.78 Log/mandrel
[1]; 3.12 percent H2O2, time 40 min
  Microbial Load (CFU/mandrel): 2180 CFU/mandrel
  Microbial Reduction (Log/mandrel): 2.59 Log/mandrel
[1]; 5.77 percent H2O2, time 0 min
  Microbial Load (CFU/mandrel): 566000 CFU/mandrel
  Microbial Reduction (Log/mandrel): 0.00 Log/mandrel
[1]; 5.77 percent H2O2, time 10 min
  Microbial Load (CFU/mandrel): 107000 CFU/mandrel
  Microbial Reduction (Log/mandrel): 0.72 Log/mandrel
[1]; 5.77 percent H2O2, time 20 min
  Microbial Load (CFU/mandrel): 7300 CFU/mandrel
  Microbial Reduction (Log/mandrel): 1.89 Log/mandrel
[1]; 5.77 percent H2O2, time 30 min
  Microbial Load (CFU/mandrel): 42 CFU/mandrel
  Microbial Reduction (Log/mandrel): 4.13 Log/mandrel
[1]; 5.77 percent H2O2, time 40 min
  Microbial Load (CFU/mandrel): 4 CFU/mandrel
  Microbial Reduction (Log/mandrel): 5.15 Log/mandrel
[1]; 9.55 percent H2O2, time 0 min
  Microbial Load (CFU/mandrel): 483000 CFU/mandrel
  Microbial Reduction (Log/mandrel): 0.00 Log/mandrel
[1]; 9.55 percent H2O2, time 5 min
  Microbial Load (CFU/mandrel): 71000 CFU/mandrel
  Microbial Reduction (Log/mandrel): 0.83 Log/mandrel
[1]; 9.55 percent H2O2, time 10 min
  Microbial Load (CFU/mandrel): 5750 CFU/mandrel
  Microbial Reduction (Log/mandrel): 1.92 Log/mandrel
[1]; 9.55 percent H2O2, time 20 min
  Microbial Load (CFU/mandrel): 106 CFU/mandrel
  Microbial Reduction (Log/mandrel): 3.66 Log/mandrel
[1]; 9.55 percent H2O2, time 30 min
  Microbial Load (CFU/mandrel): 8 CFU/mandrel
  Microbial Reduction (Log/mandrel): 4.78 Log/mandrel
[1]; 16.76 percent H2O2, time 0 min
  Microbial Load (CFU/mandrel): 1020667 CFU/mandrel
  Microbial Reduction (Log/mandrel): 0.00 Log/mandrel
[1]; 16.76 percent H2O2, time 5 min
  Microbial Load (CFU/mandrel): 52967 CFU/mandrel
  Microbial Reduction (Log/mandrel): 1.22 Log/mandrel
[1]; [3]
  Microbial Load (CFU/mandrel): 1273 CFU/mandrel
  Microbial Reduction (Log/mandrel): 2.81 Log/mandrel
[1]; [4]
  Microbial Load (CFU/mandrel): 30 CFU/mandrel
  Microbial Reduction (Log/mandrel): 4.53 Log/mandrel
[1]; [5]
  Microbial Load (CFU/mandrel): 8 CFU/mandrel
  Microbial Reduction (Log/mandrel): 5.20 Log/mandrel
[1]; [6]
  Microbial Load (CFU/mandrel): 4 CFU/mandrel
  Microbial Reduction (Log/mandrel): 5.21 Log/mandrel
[1]; 35 percent H2O2, time 0 min
  Microbial Load (CFU/mandrel): 799000 CFU/mandrel
  Microbial Reduction (Log/mandrel): 0.00 Log/mandrel
[1]; 35 percent H2O2, time 5 min
  Microbial Load (CFU/mandrel): 959 CFU/mandrel
  Microbial Reduction (Log/mandrel): 2.92 Log/mandrel
[1]; 35 percent H2O2, time 10 min
  Microbial Load (CFU/mandrel): 1 CFU/mandrel
[1]; 35 percent H2O2, time 15 min
  Microbial Load (CFU/mandrel): 1 CFU/mandrel
  Microbial Reduction (Log/mandrel): 5.90 Log/mandrel
[1]; 35 percent H2O2, time 20 min
  Microbial Load (CFU/mandrel): 1 CFU/mandrel
  Microbial Reduction (Log/mandrel): 5.90 Log/mandrel
[2]; time 0 min
  average count of colony forming units for the time period: 3.51E+05 CFU/mandrel
  log of average count for the time period: 5.55 log
[2]; time 15 min
  average count of colony forming units for the time period: 2.90E+05 CFU/mandrel
  log of average count for the time period: 5.46 log
  Average CFU/mL: 7.85E+04 CFU/mL and 6.65E+04 CFU/mL
  Average CFU/mandrel: 3.14E+05 CFU/mandrel and 2.66E+05 CFU/mandrel
  Log (of Average CFU/mandrel): 5.50 Log and 5.42 Log
  Result #1 CFU/mL: 7.80E+04 CFU/mL and 4.70E+04 CFU/mL
  Result #2 CFU/mL: 7.90E+04 CFU/mL and 8.60E+04 CFU/mL
[2]; time 15 min relative to time zero
  Log Red. (Avg.): 0.08 Log
[2]; time 30 min
  average count of colony forming units for the time period: 2.72E+05 CFU/mandrel
  log of average count for the time period: 5.43 log
  Log (of Average CFU/mandrel): 5.47 Log and 5.28 Log and 5.49 Log
  Result #1 CFU/mL: 7.40E+04 CFU/mL and 4.30E+04 CFU/mL and 7.80E+04 CFU/mL
